Data on 33 compounds can be found in patent US8304422B2, “Compositions and methods for inhibition of the JAK pathway” (Rigel Pharmaceuticals, Inc., priority 2007, dated 2012).

The test relates to BaF3 V617F cells; UKE-1. Description: Proliferation Assay (Cell Titer-Glo; Example 7). The test is classed as cell-based. To be noted: proliferation 72 hours, inhibit JAK2 activity, cell line (BaF3 V617F or UKE-1) not stated. Put shortly: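 BaF3 V617F cells (RPMI, 10% FBS) and UKE-1 cells (Iscove's DMEM, 10% FBS, 10% equine serum, 1 uM hydrocortisone) were exposed to 3-fold serially diluted compound in duplicate for 72 hours at 37 °C. Viable cell number quantified by Cell Titer-Glo luminescence; IC50 reported.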
On the technique in general: ATP-based viability assays read luminescence as a measure of living cells.
In general, IC50 refers to the concentration that inhibits the measured activity by half. Read a high IC50 as a need for much substance. As to `Cc1cnc(Nc2cc(C)c(OC(C)C)c(C)c2)nc1Nc1ccc(CNS(=O)(=O)NC2CC2)cc1` [II-164, N4-[4-((N-Cyclopropylamino)sulfonylamino)methylphenyl]-N2-[3,5-dimethyl-4-(1-methyl)ethoxyphenyl]-5-methyl-2,4-pyrimidinediamine], the IC50 was 94.8 nM. In the case of `COc1c(C)cc(Nc2ncc(C)c(Nc3ccc4c(c3)S(=O)(=O)NCC4)n2)cc1C` [VII-10, 5-Methyl-N4-[3,4-dihydro-1,1-dioxide-2H-1,2-benzothiazin-7-yl]-N2-[3,5-dimethyl-4-methoxyphenyl]-2,4-pyrimidinediamine] it was 144 nM; in that of “N4-[4-(N-Cyclopropylsulfonylamino)methylphenyl]-N2-[3,4-dimethyl-4-(2-(4-morpholinyl)ethoxy)phenyl]-5-methyl-2,4-pyrimidinediamine [II-159]”, 47.6 nM.

`CCOc1c(C)cc(Nc2ncc(Cl)c(Nc3ccc(CNS(=O)(=O)C4CC4)cc3C)n2)cc1C` [II-151, 5-Chloro-N2-(3,5-dimethyl-4-ethoxyphenyl)-N4-[2-methyl-4-(N-cyclopropylsulfonylamino)methylphenyl]-2,4-pyrimidinediamine] showed an IC50 of 398 nM. `O=S(=O)(NCc1cccc(Nc2nc(Nc3ccc(-c4cccnc4)cc3)ncc2Cl)c1)C1CC1` [II-194, 5-Chloro-N4-[3-(N-cyclopropylsulfonylamino)methylphenyl]-N2-[4-(3-pyridinyl)phenyl]-2,4-pyrimidinediamine] returned an IC50 of 1340 nM. The figure for `COc1cc(Nc2ncc(Cl)c(Nc3ccc(CNS(=O)(=O)NC4CC4)cc3C)n2)cc(C)c1OC` [II-179, 5-Chloro-N2-(3,4-dimethoxy-5-methylphenyl)-N4-[2-methyl-4-((N-cyclopropylamino)sulfonylamino)methylphenyl]-2,4-pyrimidinediamine] is 215 nM. The figure for `CCc1cnc(Nc2ccc(N3CCC(F)(F)CC3)cc2)nc1Nc1ccc(CNS(=O)(=O)C2CC2)cc1` [II-87, N4-[4-(N-Cyclopropylsulfonylamino)methylphenyl]-N2-[4-(4,4-difluoro-1-piperidinyl)phenyl]-5-ethyl-2,4-pyrimidinediamine] is 5270 nM; for `Cc1cnc(Nc2ccc(N3CCN(S(C)(=O)=O)CC3)cc2C(F)(F)F)nc1Nc1ccc(CCNS(=O)(=O)C2CC2)cc1` [II-72] it is 18300 nM; for “5-Chloro-N4[4-(N-cyclopropylsulfonylamino)ethylphenyl]-N2-[4-(6-methoxy-2-methyl-methoxy)phenyl]-2,4-pyrimidinediamine [II-50]” it is 472 nM. In turn, `COc1c(C)cc(Nc2ncc(C)c(Nc3ccc(CNS(=O)(=O)C4CC4)cc3)n2)cc1C` [II-201, 5-Methyl-N4-[4-(N-cyclopropylsulfonylamino)methylphenyl]-N2-[3,5-dimethyl-4-methoxyphenyl]-2,4-pyrimidinediamine] displayed an IC50 of 174 nM. In the case of “5-Chloro-N4-[3,4-dihydro-1,1-dioxide-2H-1,2-benzothiazin-7-yl]-N2-[5-methyl-4-(N-methylpiperizin-4-yl)pyridine-3-yl]-2,4-pyrimidinediamine [VII-4]” it was 558 nM; in that of `Cc1cnc(Nc2cncc(C)c2N2CCN(C)CC2)nc1Nc1ccc2c(c1)S(=O)(=O)NCC2` [VII-7, 5-Methyl-N4-[3,4-dihydro-1,1-dioxide-2H-1,2-benzothiazin-7-yl]-N2-[5-methyl-4-(N-methylpiperizin-4-yl)pyridine-3-yl]-2,4-pyrimidinediamine], 5390 nM; in that of “5-Chloro-N4-[4-(N-cyclopropylsulfonylamino)methylphenyl]-N2-[5-methyl-4-(N-methylpiperizin-4-yl)pyridin-3-yl]-2,4-pyrimidinediamine [II-225]”, 120 nM.

Turning to `CN1CCN(c2ccc(Nc3ncc(Cl)c(Nc4ccc(CCNS(=O)(=O)C5CC5)cc4)n3)cn2)CC1` [II-53, 5-Chloro-N4[4-(N-cyclopropylsulfonylamino)ethylphenyl]-N2-[4-(4-methylpiperazino)pyrido]-2,4-pyrimidinediamine], the IC50 came out at 1980 nM.

`CCc1cnc(Nc2cc(C)c(OC)c(C)c2)nc1Nc1ccc(CNS(=O)(=O)C2CC2)cc1` [II-81, N4-[4-(N-Cyclopropylsulfonylamino)methylphenyl]-N2-(3,5-dimethyl-4-methoxyphenyl)-5-ethyl-2,4-pyrimidinediamine] gave an IC50 of 1100 nM. The figure for `CCc1cnc(Nc2cc(Cl)c(OC)c(Cl)c2)nc1Nc1ccc(CNS(=O)(=O)C2CC2)cc1` [II-84, N4-[4-(N-Cyclopropylsulfonylamino)methylphenyl]-N2-(3,5-dichloro-4-methoxyphenyl)-5-ethyl-2,4-pyrimidinediamine] is 38300 nM; for `Cc1cnc(Nc2ccc(N3CCN(C)CC3)cc2)nc1Nc1ccc(CCNS(=O)(=O)C2CC2)cc1` [II-67] it is 717 nM. `COc1c(Cl)cc(Nc2ncc(C)c(Nc3ccc4c(c3)C(NS(=O)(=O)C3CC3)CC4)n2)cc1Cl` (racemic) [V-8, (+/−)-N4-[1-(Cyclopropylsulfonylamino)indan-6-yl]-N2-(3,5-dichloro-4-methoxyphenyl)-5-methyl-2,4-pyrimidinediamine] returned an IC50 of 3030 nM. In the case of `Cc1cnc(Nc2ccc(N3CCN(C)CC3)nc2)nc1Nc1ccc(CNS(=O)(=O)NC2CC2)cc1` [II-173, N4-[4-((N-Cyclopropylamino)sulfonylamino)methylphenyl]-5-methyl-N2-[6-(4-methyl-1-piperazinyl)-3-pyridinyl]-2,4-pyrimidinediamine] it was 2340 nM; in that of `CCCOc1c(C)cc(Nc2ncc(Cl)c(Nc3ccc(CNS(=O)(=O)NC4CC4)cc3C)n2)cc1C` [II-178, 5-Chloro-N2-(3,5-dimethyl-4-propoxyphenyl)-N4-[2-methyl-4-((N-cyclopropylamino)sulfonylamino)methylphenyl]-2,4-pyrimidinediamine], 428 nM; in that of `COc1c(C)cc(Nc2ncc(Cl)c(Nc3ccc(CNS(N)(=O)=O)cc3)n2)cc1C` [II-146, N4-[4-(Aminosulfonylamino)methylphenyl]-5-chloro-N2-(3,5-dimethyl-4-methoxyphenyl)-2,4-pyrimidinediamine], 225 nM. In the case of `CCNS(=O)(=O)NCc1cccc(Nc2nc(Nc3cc(C)c(OCC)c(C)c3)ncc2C)c1` [II-134, N2-(3,5-Dimethyl-4-ethoxyphenyl)-N4-[(3-(ethylamino)sulfonylamino)methylphenyl]-5-methyl-2,4-pyrimidinediamine] it was 231 nM; in that of `CS(=O)(=O)N1CCN(c2ccc(Nc3ncc(Cl)c(Nc4ccc(CCNS(=O)(=O)C5CC5)cc4)n3)c(C(F)(F)F)c2)CC1` [II-55, 5-Chloro-N4[4-(N-cyclopropylsulfonylamino)ethylphenyl]-N2-[4-(4-methylsulfonylpiperazino)-2-trifluoromethylphenyl]-2,4-pyrimidinediamine], 8880 nM. The compound `CCc1cnc(Nc2ccc(N3CCN(CC)CC3)cc2)nc1Nc1ccc(CNS(=O)(=O)C2CC2)cc1` [II-89, N4-[4-(N-Cyclopropylsulfonylamino)methylphenyl]-5-ethyl-N2-[4-(4-ethyl-1-piperazinyl)phenyl]-2,4-pyrimidinediamine] gave an IC50 of 674 nM. In the case of `CCc1cnc(Nc2cc(OC)c(OC)c(OC)c2)nc1Nc1ccc(CNS(=O)(=O)C2CC2)cc1` [II-85, N4-[4-(N-Cyclopropylsulfonylamino)methylphenyl]-5-ethyl-N2-(3-,4,5-trimethoxylphenyl)-2,4-pyrimidinediamine] it was 2690 nM. Regarding `COc1cc(Nc2ncc(Cl)c(Nc3ccc(CNS(=O)(=O)C4CC4)cc3)n2)cc(C)c1OC` [II-199, 5-Chloro-N4-[4-(N-cyclopropylsulfonylamino)methylphenyl]-N2-[3,4-dimethoxy-5-methylphenyl]-2,4-pyrimidinediamine], the IC50 was 57.2 nM.

For `Cc1cc(CNS(=O)(=O)NC2CC2)ccc1Nc1nc(Nc2ccc(N3CCN(C)CC3)cc2)ncc1Cl` [II-180, 5-Chloro-N4-[2-methyl-4-((N-cyclopropylamino)sulfonylamino)methylphenyl]-N2-[4-(4-methyl-1-piperazinyl)phenyl]-2,4-pyrimidinediamine], half-maximal inhibition (IC50) was put at 633 nM.

On to `CCOc1cc(Nc2ncc(C)c(Nc3ccc(CNS(=O)(=O)C4CC4)cc3)n2)cc(OC)c1OC` [II-209, 5-Methyl-N4-[4-(N-cyclopropylsulfonylamino)methylphenyl]-N2-[3,4-dimethoxy-5-ethoxyphenyl]-2,4-pyrimidinediamine], for which half-maximal inhibition (IC50) was put at 317 nM. As for `CCOc1c(C)cc(Nc2ncc(Cl)c(Nc3ccc(CNS(N)(=O)=O)cc3)n2)cc1C` [II-147, N4-[4-(Aminosulfonylamino)methylphenyl]-5-chloro-N2-(3,5-Dimethyl-4-ethoxyphenyl)-2,4-pyrimidinediamine], the IC50 was found to be 142 nM. `COc1c(C)cc(Nc2ncc(Cl)c(Nc3ccc(CNS(=O)(=O)N(C)C)cc3)n2)cc1Cl` [II-93, 5-Chloro-N2-(3-chloro-4-methoxy-5-methylphenyl)-N4-[(4-(dimethylamino)sulfonylamino)methylphenyl]-2,4-pyrimidinediamine] gave an IC50 of 350 nM.

Consider “5-Chloro-N4-[4-(N-cyclopropyl-N-acetylsulfonylamino)methylphenyl]-N2-[3,4-dimethyl-5-methoxyphenyl]-2,4-pyrimidinediamine [II-217]”, for which the IC50 was 233 nM. The figure for `COc1c(C)cc(Nc2ncc(Cl)c(Nc3ccc(CNS(=O)(=O)NC4CC4)cc3C)n2)cc1C` [II-175, 5-Chloro-N2-(3,5-dimethyl-4-methoxyphenyl)-N4-[2-methyl-4-((N-cyclopropylamino)sulfonylamino)methylphenyl]-2,4-pyrimidinediamine] is 354 nM; for `Cc1cc(CNS(=O)(=O)C2CC2)ccc1Nc1nc(NC2=CC(C)C(C)(OCCN3CCOCC3)C=C2)ncc1C` (stereo not drawn) [II-161, N2-[3,4-Dimethyl-4-(2-(4-morpholinyl)ethoxy)phenyl]-5-methyl-N4-[2-methyl-4-(N-cyclopropylsulfonylamino)methylphenyl]-2,4-pyrimidinediamine] it is 149 nM.
